These results are taken from US20250129067A1 (Progentos Therapeutics, Inc., priority 2021, published 2025).

For series [1], the system named is Oligodendrocyte progenitor cells (OPCs). Briefly: In vitro OPC differentiation assay, GPR17 expression (immunocytochemistry). Conditions: 72 hours; for GPR17 Fold Induction (Over Vehicle; 3 μM): 3 μM (10× concentration, final 0.3 μM).
The target in another series is PDGFRα (Homo sapiens (Human), UniProt P16234). Nature of the series: PDGFRα kinase enzyme assay (Promega PDGFRα Kinase Enzyme System, ADP-Glo). The class given is biochemical. Conditions: 150 uM ATP. The method in brief:
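Read-out was ADP-Glo: remaining ATP depleted, ADP converted to luminescence and compared with a standard curve.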
In general terms: ADP-Glo first removes unused ATP, then detects ADP through luciferase.

The subject of series [2] is Oligodendrocyte progenitor cells (OPCs). Nature of the series: In vitro OPC differentiation assay, MBP expression (immunocytochemistry). Particulars: 72 hours of treatment; fold change over vehicle.
The test system of series [3] is GPR17+ cells (newly differentiated oligodendrocytes). Nature of the series: In vivo OPC differentiation, GPR17+ cells in brain. Particulars: for In vivo GPR17+ cells, GPR17 Fold Induction (Over Vehicle): adult female C57BL/6 mice, PO or IP, treatment period 1-3 days, entire brain, fold change over vehicle treated animals.
Procedure: The ability of newly constructed compounds to drive OPC differentiation and myelination in vivo was tested. The ability of these compounds to drive OPC differentiation in vivo was tested using GPR17 as an indicator of newly differentiated oligodendrocytes.
Compounds were delivered PO or IP either QD or BID. Mice were dosed once, transiently, or continuously through the treatment period, which ranged from 1-3 days.
Mice were euthanized by isoflurane exposure and transcardially perfused with 14 mL of PBS (Sigma Cat #P4417-50TAB) followed by 22 mL of 3.2% paraformaldehyde in PBS. The brains were removed and postfixed for a minimum of 24 hours in 20 mL of 3.2% paraformaldehyde.
50-micron floating sections were cut using a Leica VT1200S vibratome. Every 24th section, extending through the antero-posterior extent of the brain, was stained. The selected brain sections were washed three times in PBS for 3 minutes each. The floating sections were incubated in the primary antibodies (see Table 10, below) diluted in blocking solution overnight at room temperature on a shaker. […] The next day, the sections were again washed three times in PBS for 3 minutes each and then incubated in the secondary antibodies diluted in blocking solution for 2 hours at room temperature on a shaker. After incubation, the sections were washed three times in PBS for 3 minutes each and mounted on a slide to be imaged using the Olympus Slide Scanner VS200.
The images were analyzed using a custom protocol developed using Visiopharm software to count GPR17+ cells. Cells were considered GPR17+ if they contained an Olig2 positive nucleus, and intense GPR 17 staining that filled their processes. Statistical analysis was done using one-way ANOVA with multiple comparison in GraphPad Prism software.
Where [4] appears, read: 5 μM (10× concentration, final 0.5 μM), fold change over vehicle.
Where [5] appears, read: 11-point dose response, 10,000 nM to 0.169 nM, BLQ = below limit of quantitation, read-out: IC50 Values on PDGFRα Kinase Inhibition, IC50.
The mark [6] stands for this setting: Mus musculus, po, 24 h, read-out: GPR17 Fold Induction (Over Vehicle).
[7] abbreviates: 11-point dose response, 10,000 nM to 0.169 nM, BLQ = below limit of quantitation.
The mark [8] stands for this setting: primary rat OPCs, 5 μM (10x; final 0.5 μM per method), percent GPR17+ cells as fold change over vehicle.
Setting [9] is: 20 ng purified PDGFRα, Poly (Glu4Tyr1) substrate, two hours, 11-point dose response, read-out: IC50 Values on PDGFRα Kinase Inhibition.

Structures can show the parent of a compound that is named as a salt. Where two headings read alike, the source gives them in different places.

A word on the IC50: it is the concentration that inhibits the measured activity by half.

Chain of PDGFRα (P16234 24-1089): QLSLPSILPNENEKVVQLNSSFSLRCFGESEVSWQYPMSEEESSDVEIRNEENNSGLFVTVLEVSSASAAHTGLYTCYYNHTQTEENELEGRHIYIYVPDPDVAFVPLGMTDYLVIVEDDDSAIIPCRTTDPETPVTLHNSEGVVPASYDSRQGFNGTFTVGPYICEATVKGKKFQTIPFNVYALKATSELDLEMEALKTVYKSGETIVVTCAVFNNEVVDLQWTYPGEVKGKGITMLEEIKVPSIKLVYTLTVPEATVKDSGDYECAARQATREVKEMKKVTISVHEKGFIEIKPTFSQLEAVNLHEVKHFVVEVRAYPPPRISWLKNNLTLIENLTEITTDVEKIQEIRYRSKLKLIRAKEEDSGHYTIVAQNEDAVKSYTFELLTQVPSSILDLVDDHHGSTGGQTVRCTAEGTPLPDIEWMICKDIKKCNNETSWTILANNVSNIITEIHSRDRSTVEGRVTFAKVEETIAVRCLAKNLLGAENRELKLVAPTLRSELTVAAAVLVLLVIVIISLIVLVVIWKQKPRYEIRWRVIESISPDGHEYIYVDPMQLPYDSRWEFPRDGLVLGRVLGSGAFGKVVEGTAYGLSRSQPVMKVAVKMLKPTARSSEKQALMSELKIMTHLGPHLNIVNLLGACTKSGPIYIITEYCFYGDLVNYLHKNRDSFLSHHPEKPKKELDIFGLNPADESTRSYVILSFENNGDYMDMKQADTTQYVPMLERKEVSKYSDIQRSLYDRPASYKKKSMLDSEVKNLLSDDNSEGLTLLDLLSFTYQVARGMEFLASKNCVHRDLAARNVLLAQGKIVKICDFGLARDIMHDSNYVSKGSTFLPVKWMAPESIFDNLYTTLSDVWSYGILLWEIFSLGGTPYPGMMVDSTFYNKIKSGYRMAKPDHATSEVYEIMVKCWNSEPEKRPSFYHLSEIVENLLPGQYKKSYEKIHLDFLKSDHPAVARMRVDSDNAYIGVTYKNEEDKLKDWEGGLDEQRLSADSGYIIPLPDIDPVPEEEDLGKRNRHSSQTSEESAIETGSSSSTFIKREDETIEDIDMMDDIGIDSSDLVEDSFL

Regarding `Cn1cc(-c2ccc3c(N4CCN(C(=O)Cc5ccccc5)CC4)cnn3c2)cn1` [Compound 18, 6-(1-methyl-1H-pyrazol-4-yl)-3-[4-(phenylacetyl)piperazin-1-yl]pyrazolo[1,5-a]pyridine], the “GPR17 Fold Induction (Over Vehicle; 3 μM)” value in series [1] (fold change over vehicle) came to 4.40. In addition, the “GPR17 Fold Induction (Over Vehicle; 5 μM)” value in series [1] (setting [4]) was found to be 3.50. For the same compound, the IC50 at PDGFRα (setting [5]) was found to be 1.65 µM. The “MBP Fold Induction (Over vehicle)” value in series [2] is reported as 1.77.

As for `CC(C)Cc1cnc(N2CCN(c3cnn4cc(-c5cnn(C)c5)ccc34)CC2)nc1` [Compound 189, 3-(4-(5-isobutylpyrimidin-2-yl)piperazin-1-yl)-6-(1-methyl-1H-pyrazol-4-yl)pyrazolo[1,5-a]pyridine], in series [1] (fold change over vehicle), the “GPR17 Fold Induction (Over Vehicle; 3 μM)” value is 7.61. Besides, at PDGFRα (setting [5]), the IC50 worked out at 5.28 µM. The “MBP Fold Induction (Over vehicle)” value in series [2] is on record as 4.70.

`Cn1cc(-c2ccc3c(N4CCN(c5ncc(C(O)Cc6ccccc6)cn5)CC4)cnn3c2)cn1` (centres unmarked) [Compound 167, 1-(2-{4-[6-(1-methyl-1H-pyrazol-4-yl)pyrazolo[1,5-a]pyridin-3-yl]piperazin-1-yl}pyrimidin-5-yl)-2-phenylethanol]: the “GPR17 Fold Induction (Over Vehicle; 3 μM)” value in series [1] (fold change over vehicle) was 7.07. In addition, in series [2], the “MBP Fold Induction (Over vehicle)” value is given as 16.83.

For `CN(Cc1ccccc1)S(=O)(=O)N1CCN(c2cnn3cc(-c4cnn(C)c4)ccc23)CC1` [Compound 158, N-benzyl-N-methyl-4-(6-(1-methyl-1H-pyrazol-4-yl)pyrazolo[1,5-a]pyridin-3-yl)piperazine-1-sulfonamide], the “GPR17 Fold Induction (Over Vehicle; 3 μM)” value in series [1] (fold change over vehicle) was 4.57. The IC50 at PDGFRα (setting [5]) was greater than 10 µM. Moreover, the “MBP Fold Induction (Over vehicle)” value in series [2] was found to be 4.88.

In the case of `Cn1cc(-c2ccc3c(N4CCN(c5ncccn5)CC4)cnn3c2)cn1` [Compound 10, 6-(1-methyl-1H-pyrazol-4-yl)-3-(4-pyrimidin-2-ylpiperazin-1-yl)pyrazolo[1,5-a]pyridine], the “GPR17 Fold Induction (Over Vehicle; 3 μM)” value in series [1] (fold change over vehicle) came to 5.65. Further, in series [1] (setting [4]), the “GPR17 Fold Induction (Over Vehicle; 5 μM)” value was found to be 3.81. In addition, the IC50 on PDGFRα (setting [5]) came to 6.19 µM. In addition, in series [2], the “MBP Fold Induction (Over vehicle)” value is on record as 1.41.

`C[C@@H](OC(=O)N1CCN(c2cnc3cc(-c4cnn(C)c4)cnn23)CC1)c1ccc(C(F)(F)F)cc1` [Compound 283, (R)-1-(4-(trifluoromethyl)phenyl)ethyl 4-(7-(1-methyl-1H-pyrazol-4-yl)imidazo[1,2-b]pyridazin-3-yl)piperazine-1-carboxylate]: the “GPR17 Fold Induction (Over Vehicle; 3 μM)” value in series [1] (fold change over vehicle) was 5.90. Also, the fold induction at 3 mg/kg in series [3] (setting [6]) worked out at 6.8. In addition, the “IC50 Values on PDGFRα Kinase Inhibition, IC50 (nM)” value on PDGFRα (setting [7]) is given as “BLQ”.

As to `COc1cc2c(cc1OC)-c1[nH]nc(Nc3cccc(F)c3)c1C2` [JNJ-10198409, JNJ=10198409, reference compound], the “GPR17 Fold Induction (Over Vehicle; 5 μM)” value in series [1] (setting [8]) was 3.87. Moreover, the “In vivo GPR17+ cells, GPR17 Fold Induction (Over Vehicle)” value in series [3] turned out to be 1.16. Further, the IC50 on PDGFRα (setting [9]) is greater than 10 µM.

In the case of `Cc1ccc(C(C)OC(=O)N2CCN(c3cnn4cc(-c5cnn(C)c5)ccc34)CC2)nc1` (centres unmarked) [Compound 261, 1-(5-methylpyridin-2-yl)ethyl 4-[6-(1-methyl-1H-pyrazol-4-yl)pyrazolo[1,5-a]pyridin-3-yl]piperazine-1-carboxylate], the “GPR17 Fold Induction (Over Vehicle; 3 μM)” value in series [1] (fold change over vehicle) was 5.04. Besides, the fold induction at 3 mg/kg in series [3] (setting [6]) is 3.71. The IC50 on PDGFRα (setting [5]) amounted to 0.0171 µM.

Consider `CC(C)(C)OC(=O)N1CCN(c2cnn3cc(-c4cccnc4)ccc23)CC1` [Compound 217, tert-butyl 4-(6-(pyridin-3-yl)pyrazolo[1,5-a]pyridin-3-yl)piperazine-1-carboxylate], for which the “GPR17 Fold Induction (Over Vehicle; 3 μM)” value in series [1] (fold change over vehicle) was 1.69. The fold induction at 3 mg/kg in series [3] (setting [6]) amounted to 0.97. Also, at PDGFRα (setting [5]), the IC50 is 0.594 µM.

For the compound `Cn1cc(-c2ccc3c(N4CCN(c5ncc(Cc6ccccc6)o5)CC4)cnn3c2)cn1` [Compound 247, 5-benzyl-2-(4-(6-(1-methyl-1H-pyrazol-4-yl)pyrazolo[1,5-a]pyridin-3-yl)piperazin-1-yl)oxazole], in series [1] (fold change over vehicle), the “GPR17 Fold Induction (Over Vehicle; 3 μM)” value amounted to 2.45. Further, the fold induction at 30 mg/kg in series [3] (setting [6]) was 8.43. The IC50 at PDGFRα (setting [5]) was found to be 1.78 µM.

As to `Cn1cc(-c2ccc3c(N4CCN(c5ncc(C(O)C6CCOCC6)cn5)CC4)cnn3c2)cn1` (centres unmarked) [Compound 69, (2-{4-[6-(1-methyl-1H-pyrazol-4-yl)pyrazolo[1,5-a]pyridin-3-yl]piperazin-1-yl}pyrimidin-5-yl)(tetrahydro-2H-pyran-4-yl)methanol], in series [1] (fold change over vehicle), the “GPR17 Fold Induction (Over Vehicle; 3 μM)” value is recorded as 4.53. In series [3] (setting [6]), the fold induction at 3 mg/kg stood at 1.09 and the fold induction at 30 mg/kg turned out to be 2.34. For the same compound, on PDGFRα (setting [5]), the IC50 was 0.154 µM.

As to `C[C@@H](OC(=O)N1CCN(c2cnn3cc(-c4cnn(C)c4)cnc23)CC1)c1ccccc1` [Compound 73, (1R)-1-Phenylethyl 4-[6-(1-methyl-1H-pyrazol-4-yl)pyrazolo[1,5-a]pyrimidin-3-yl]piperazine-1-carboxylate], the “GPR17 Fold Induction (Over Vehicle; 3 μM)” value in series [1] (fold change over vehicle) was determined as 6.68. In addition, the fold induction at 3 mg/kg in series [3] (setting [6]) was determined as 1.77. Further, the IC50 at PDGFRα (setting [5]) was 0.116 µM.

Regarding `CC1CN(c2cnn3cc(-c4cnn(C)c4)ccc23)CCN1C(=O)OC(C)(C)C` (centres unmarked) [Compound 238, tert-butyl-2-methyl-4-(6-(1-methyl-1H-pyrazol-4-yl)pyrazolo[1,5-a]pyridin-3-yl)piperazine-1-carboxylate], the “GPR17 Fold Induction (Over Vehicle; 3 μM)” value in series [1] (fold change over vehicle) worked out at 6.34. Besides, the fold induction at 3 mg/kg in series [3] (setting [6]) was 1.54. Further, the IC50 at PDGFRα (setting [5]) amounted to 0.43 µM.

With `Cn1cc(-c2ccc3c(N4CCN(c5ccc(Cc6ccccc6)nc5)CC4)cnn3c2)cn1` [Compound 151, 3-(4-(6-benzylpyridin-3-yl)piperazin-1-yl)-6-(1-methyl-1H-pyrazol-4-yl)pyrazolo[1,5-a]pyridine], the “GPR17 Fold Induction (Over Vehicle; 3 μM)” value in series [1] (fold change over vehicle) is 20.40. Also, the fold induction at 3 mg/kg in series [3] (setting [6]) amounted to 1.73. For the same compound, the IC50 on PDGFRα (setting [5]) was determined as 2.78 µM.

`CN1CCN(c2ccc(Nc3ncc4cc(C#N)c(=O)n(C5CCCC5)c4n3)cc2)CC1` [ON123300, reference compound]: the “GPR17 Fold Induction (Over Vehicle; 5 μM)” value in series [1] (setting [8]) was 6.72. The “In vivo GPR17+ cells, GPR17 Fold Induction (Over Vehicle)” value in series [3] is reported as 1.49. Also, the IC50 at PDGFRα (setting [9]) was 0.0735 µM.

In the case of `Cn1cc(-c2ccc3c(N4CCN(c5ncc(Cc6ccco6)cn5)CC4)cnn3c2)cn1` [Compound 181, 3-(4-(5-(furan-2-ylmethyl)pyrimidin-2-yl)piperazin-1-yl)-6-(1-methyl-1H-pyrazol-4-yl)pyrazolo[1,5-a]pyridine], in series [1] (fold change over vehicle), the “GPR17 Fold Induction (Over Vehicle; 3 μM)” value stood at 4.87. Further, the fold induction at 3 mg/kg in series [3] (setting [6]) was 1. Further, the IC50 at PDGFRα (setting [5]) worked out at 1.86 µM.

For `COc1ccc(N2Cc3cnc(Nc4ccc(F)cc4)nc3N([C@@H]3CC[C@@H](O)C3)C2=O)cc1` [RO4396686, reference compound], the “GPR17 Fold Induction (Over Vehicle; 5 μM)” value in series [1] (setting [8]) was determined as 3.61. Also, in series [3], the “In vivo GPR17+ cells, GPR17 Fold Induction (Over Vehicle)” value is 9.23. Also, the IC50 on PDGFRα (setting [9]) stood at 0.37 µM.

As to `C[C@@H](OC(=O)N1CCN(c2cnn3cc(-c4cnn(C)c4)ccc23)CC1)c1cccc(F)c1` [Compound 79, (1R)-1-(3-Fluorophenyl)ethyl 4-[6-(1-methyl-1H-pyrazol-4-yl)pyrazolo[1,5-a]pyridin-3-yl]piperazine-1-carboxylate], the “GPR17 Fold Induction (Over Vehicle; 3 μM)” value in series [1] (fold change over vehicle) is given as 5.46. In addition, the fold induction at 3 mg/kg in series [3] (setting [6]) amounted to 2.81. Also, the IC50 on PDGFRα (setting [5]) amounted to 0.0161 µM.

As for `Cn1cc(-c2cnc3c(N4CCN(C(=O)OC(C)(C)C)CC4)cnn3c2)cn1` [Compound 2, tert-butyl 4-[6-(1-methyl-1H-pyrazol-4-yl)pyrazolo[1,5-a]pyrimidin-3-yl]piperazine-1-carboxylate], the “GPR17 Fold Induction (Over Vehicle; 3 μM)” value in series [1] (fold change over vehicle) is recorded as 1.46. The fold induction at 3.3 mg/kg in series [3] (setting [6]) is 1.13. Moreover, the IC50 at PDGFRα (setting [5]) was determined as 1.46 µM.

As to `Cn1cc(-c2ccc3c(N4CCN(c5ncc(Cc6ccccn6)cn5)CC4)cnn3c2)cn1` [Compound 250, 6-(1-methyl-1H-pyrazol-4-yl)-3-{4-[5-(pyridine-2-ylmethyl)pyrimidin-2-yl]piperazin-1-yl}pyrazolo[1,5-a]pyridine], the “GPR17 Fold Induction (Over Vehicle; 3 μM)” value in series [1] (fold change over vehicle) came to 9.74. In addition, in series [3] (setting [6]), the fold induction at 3 mg/kg was 6.19. The IC50 at PDGFRα (setting [5]) came out at 0.0804 µM.

Consider `COc1cc2c(Oc3ccc4[nH]c(C)cc4c3F)ccnc2cc1OCC1(N)CC1` [Anlotinib HCl, anlotinib HCl, reference compound], for which, in series [1] (setting [8]), the “GPR17 Fold Induction (Over Vehicle; 5 μM)” value turned out to be 6.58. The “In vivo GPR17+ cells, GPR17 Fold Induction (Over Vehicle)” value in series [3] is reported as 17.89. On PDGFRα (setting [9]), the IC50 was 1.36 µM.

In the case of `C[C@@H](OC(=O)N1CCN(c2cnn3cc(-c4cnn(C)c4)ccc23)CC1)c1ccc(F)cc1` [Compound 77, (1R)-1-(4-Fluorophenyl)ethyl 4-[6-(1-methyl-1H-pyrazol-4-yl)pyrazolo[1,5-a]pyridin-3-yl]piperazine-1-carboxylate], the “GPR17 Fold Induction (Over Vehicle; 3 μM)” value in series [1] (fold change over vehicle) worked out at 7.12. Besides, the fold induction at 3 mg/kg in series [3] (setting [6]) stood at 8.64. Moreover, the “IC50 Values on PDGFRα Kinase Inhibition, IC50 (nM)” value against PDGFRα (setting [7]) was “BLQ”.
